In PubChem BioAssay AID488890 (Southern Research Specialized Biocontainment Screening …, 2010):
Records with an inconclusive call do not appear. Calls of active or inactive are those of the source. No rule for the calls is given here.

Each compound was assayed on Mycobacterium tuberculosis non-replicating, growth inhibition (assay: growth inhibition of non-replicating M. tuberculosis (AID 488890)).
`Cc1cc2cc(CNC(=O)COc3ccccc3)ccc2n1C` was tested, and the IC50 was 26 µM (inactive).
`C/C(=N\NC(=O)c1cccc(Cl)c1)C1C(=O)c2ccccc2C1=O` showed an IC50 of 0.38 µM.
In the case of `Cc1cccc(Cn2ccc(NC(=O)c3ccc4c(c3)OCO4)n2)c1`, the IC50 is reported as 4.51 µM.
`CCCCOc1ccc(-c2nnn(C(C)C(=O)OCC)n2)cc1` (stereo not drawn) was tested, and the IC50 was 1.57 µM.
Compound `CC1CCN(C(=O)COC(=O)c2cc3ccccc3cc2O)CC1` has an IC50 of 2.04 µM.
With `COCCn1c(C)cc(C(=O)COC(=O)c2ccc(Br)o2)c1C` the IC50 was 43.8 µM (inactive).
`CC(=O)c1ccc(NC(=O)c2cc(CC(C)C)on2)cc1` showed an IC50 of 3.58 µM.
In the case of `Cc1ccc2c(CC(=O)OCC(=O)Nc3ccc(Cl)cn3)coc2c1`, the IC50 is reported as 15 µM (inactive).
For `Cc1ccc(-c2ccc(/C=N/NC(=O)CN3CCOCC3)o2)cc1[N+](=O)[O-]`, the IC50 was 32.2 µM (inactive).
With `COc1ccccc1-n1c(=O)oc2ccc(Cl)cc2c1=O` the IC50 was 12 µM (inactive).
`Cc1cccc(-c2cc3nc(C)c(C)c(NCCCn4ccnc4)n3n2)c1` was tested, and the IC50 was 10.9 µM (inactive).
In the case of `CC(C)(C)Nc1nc(NC(C)(C)C)nc(-n2ccnc2)n1`, the IC50 is reported as 23 µM (inactive).
With `O=C(COc1ccccc1)NNc1nc2ccccc2s1` the IC50 was 34.2 µM (inactive).
With `CCCC(C)C(=O)Nc1ccc(Cl)cn1` (stereo not drawn) the IC50 was 10.3 µM (inactive).
Compound `Cc1ccc2c(C)ccc(O)c2n1` has an IC50 of 5.18 µM.
For `Cc1ccc(NC(=S)C2=C(O)c3sccc3N(C)S2(=O)=O)cc1`, the IC50 was 22.3 µM (inactive).
Work on `CCN(CC)c1ccc2c(c1)oc(=O)c1c(Cl)cc(=O)oc12` yielded an IC50 of 3.7 µM.
In the case of `COc1ccc(/C=C2\COc3ccccc3C2=O)cc1OC`, the IC50 is reported as 12.5 µM (inactive).
With `Cc1ccccc1C(=O)NNc1ccc([N+](=O)[O-])cc1` the IC50 was 20.4 µM (inactive).
Compound `COC(=O)COc1ccc(-c2nn(C)c(=O)c3ccccc23)cc1` has an IC50 of 4.25 µM.
In the case of `Cc1ccccc1-n1sc2cc(F)ccc2c1=O`, the IC50 is reported as 9.85 µM.
For `Cc1cc(NCc2ccccn2)n2ncc(-c3ccccc3)c2n1`, the IC50 was 1.93 µM.
In the case of `Cc1ccc(C(=O)COC(=O)c2cccs2)cc1`, the IC50 is reported as 11 µM (inactive).
`C/C(=N\NC(=O)c1cccs1)c1ccc2c(c1)OCO2` gave an IC50 of 8.78 µM.
`O=C1OC(/C=C/c2ccccc2)=NC/1=C\c1cccnc1` was tested, and the IC50 was 13 µM (inactive).
In the case of `CCc1ccc(N2CCN(CCNC(=O)Nc3ccc(OC)cc3)CC2)cc1`, the IC50 is reported as 17.7 µM (inactive).
In the case of `O=C(C/C=N\OCc1ccc([N+](=O)[O-])cc1)Nc1ccc(F)cc1F`, the IC50 is reported as 9.1 µM.
Compound `O=C(Nc1nnc(-c2ccccc2Cl)o1)c1ccco1` has an IC50 of 6.7 µM.
Compound `O=C(CCC1CCCCC1)NCc1cccs1` has an IC50 of 0.27 µM.
For `COc1ccc(/C=C2\Sc3ccc(C(=O)NCCN4CCCCCC4)cc3N(C)C2=O)cc1`, the IC50 was 12.7 µM (inactive).
`O=C(Nc1ccc(S(=O)(=O)N2CCOCC2)cc1)c1ccc([N+](=O)[O-])s1` was tested, and the IC50 was 1.59 µM.
With `O=C(Nc1ccc(F)cc1F)c1cc2ccccc2oc1=O` the IC50 was 25.1 µM (inactive).
In the case of `Cc1ccc(NC(=O)c2ccc([N+](=O)[O-])o2)c(C)c1`, the IC50 is reported as 8.9 µM.
`CCOC(=O)c1cc(-c2cccc([N+](=O)[O-])c2)on1` gave an IC50 of 0.64 µM.
In the case of `O=C(NCCC1=CCCCC1)c1ccc(Br)o1`, the IC50 is reported as 2.31 µM.
In the case of `O=C(Nc1ncc([N+](=O)[O-])s1)c1ccc2c(c1)OCO2`, the IC50 is reported as 4.75 µM.
In the case of `CCCN(CCC)CCNC(=O)c1cc2c(-c3ccc(Cl)cc3)nn(C)c2s1`, the IC50 is reported as 22.5 µM (inactive).
For `O=Cc1ccc(OC2OCCOC2Oc2ccc(C=O)cc2)cc1` (stereo not drawn), the IC50 was 14.2 µM (inactive).
`CCCc1nnc(-c2ccc(OC)cc2)o1` gave an IC50 of 1.24 µM.
In the case of `Cc1cc(NC(=O)c2cc([N+](=O)[O-])cc([N+](=O)[O-])c2)no1`, the IC50 is reported as 17.3 µM (inactive).
`NC(=O)N/N=C\c1cc(Br)ccc1O` gave an IC50 of 4.2 µM.
`Cc1c(Cl)cccc1NC(=O)C(=O)NNC(=O)c1ccccc1F` showed an IC50 of 1.59 µM.
`CCCCCn1c(=O)c2ccccc2n2c(CCl)nnc12` gave an IC50 of 0.72 µM.
`CCCCCOc1ccc(CSC2=NCCN2)cc1[N+](=O)[O-]` was tested, and the IC50 was 23.4 µM (inactive).
For `CCSc1nc(O)c(C2OC(=O)c3c2ccc(OC)c3OC)c(=O)n1-c1ccccc1` (stereo not drawn), the IC50 was 13.3 µM (inactive).
Compound `CCOC(=O)CNCCC(=O)c1ccc(Br)cc1` has an IC50 of 4.35 µM.
Work on `COc1ccc(COC(=O)CCNC(=O)c2ccc(Cl)cc2)cc1` yielded an IC50 of 8.25 µM.
In the case of `CCc1ccc(C(=O)COC(=O)c2ccc(Cl)nc2)cc1`, the IC50 is reported as 17.3 µM (inactive).
`CC1=NN(c2ccccc2)C(=O)C1C(=O)c1ccccc1` (stereo not drawn) was tested, and the IC50 was 15.9 µM (inactive).
In the case of `COC(=O)c1cccc(COC(=O)c2cc3ccccc3oc2=O)c1`, the IC50 is reported as 11.7 µM (inactive).
Work on `COc1cc(OC)cc(OC(=O)c2ccc3c(=O)n4c(nc3c2)CCC4)c1` yielded an IC50 of 4.95 µM.
`Cc1noc2ncnc(Sc3ccc(Br)cc3)c12` gave an IC50 of 6.24 µM.
In the case of `CC(C)c1cc(C(=O)N/N=C/C=C/c2ccccc2)n[nH]1`, the IC50 is reported as 27 µM (inactive).
In the case of `CCC(=O)Nc1ccc(C(=O)NNC(=O)c2cc([N+](=O)[O-])cc([N+](=O)[O-])c2)cc1`, the IC50 is reported as 12.9 µM (inactive).
For `O=C(c1ccccc1)n1c(=O)c(F)cn(COCCBr)c1=O`, the IC50 was 21 µM (inactive).
`Cc1ccccc1Nc1c(-c2ccccn2)nc2ccccn12` was tested, and the IC50 was 13.9 µM (inactive).
With `COc1cccc(OCCNC(=O)c2cc([N+](=O)[O-])cc([N+](=O)[O-])c2)c1` the IC50 was 0.49 µM.
For `COc1ccc(Cl)cc1N=Cc1c(O)c2ccccc2oc1=O`, the IC50 was 44.3 µM (inactive).
`CCCCCCOc1ccc(C(=O)O)cc1C#N` was tested, and the IC50 was 42.7 µM (inactive).
With `Cc1cc(Br)ccc1OCC(=O)NNC(=O)c1cnccn1` the IC50 was 6.09 µM.
In the case of `COc1cccc(C(=O)OCn2nnc3ccccc3c2=O)c1OC`, the IC50 is reported as 19 µM (inactive).
Work on `Cc1ccc(NC(=O)CCSc2nnc(Cc3ccccc3)o2)cc1` yielded an IC50 of 2.05 µM.
`CS(=O)(=O)Cc1nc2ccccc2oc1=O` gave an IC50 of 3.18 µM.
In the case of `Nc1ccc2c(c1)C(=O)C(=O)c1ccccc1-2`, the IC50 is reported as 2.47 µM.
`Clc1ccc(OCCCCN2CCc3ccccc3C2)cc1` showed an IC50 of 9.36 µM.
In the case of `Cc1cc(Cl)ccc1NNC(=O)c1cccs1`, the IC50 is reported as 14.5 µM (inactive).
`CCOC(=O)C(=O)Cc1nc2ccccc2s1` gave an IC50 of 6.54 µM.
For `CCc1ccc(OCCNc2cc(N3CCNC(C)C3)ccc2[N+](=O)[O-])cc1` (stereo not drawn), the IC50 was 2.89 µM.
With `CC(=O)c1c(C)n(C)c2ccc(OC(=O)c3ccco3)cc12` the IC50 was 10.3 µM (inactive).
Compound `O=C(OCC(=O)c1c[nH]c2ccccc12)c1ccc([N+](=O)[O-])s1` has an IC50 of 0.79 µM.
For `Cc1ccccc1N1CCN(Cc2ccc([N+](=O)[O-])o2)CC1`, the IC50 was 3.25 µM.
In the case of `Oc1ccccc1CN1CCCC(N2CCN(c3cccc(C(F)(F)F)c3)CC2)C1` (stereo not drawn), the IC50 is reported as 21.5 µM (inactive).
With `c1ccc(CNCCC(Cc2ccccc2)c2ccco2)cc1` (stereo not drawn) the IC50 was 21.6 µM (inactive).
For `Cc1cc(C)c2c(=O)n(CC(=O)Nc3cccc(Cl)c3C)sc2n1`, the IC50 was 7.18 µM.
With `CSCCOC(=O)COc1ccc(/C=N/NC(=O)c2c(Cl)cnn2C)cc1` the IC50 was 8.85 µM.
For `Cn1c(NC(=O)c2ccccc2)nc2ccccc21`, the IC50 was 2.7 µM.
`CN(C)CC(C(=O)c1ccccc1)c1ccccc1` (stereo not drawn) showed an IC50 of 2.83 µM.
For `COc1ccc2cc(C(=O)C3CCCN(Cc4ccccn4)C3)ccc2c1` (stereo not drawn), the IC50 was 6.59 µM.
For `COc1ccccc1-c1cc(SC)c(C#N)c(=O)o1`, the IC50 was 14.2 µM (inactive).
`Cc1[nH]n(S(=O)(=O)Cc2ccccc2)c(=O)c1N=Nc1ccccc1Cl` gave an IC50 of 4.72 µM.
With `CCn1c(/C=N/NC(=O)c2ccc(OC)cc2)nc2ccccc21` the IC50 was 7.78 µM.
In the case of `O=C(CCCOc1ccccc1)OCn1nnc2ccccc2c1=O`, the IC50 is reported as 24.8 µM (inactive).
Work on `Clc1cccc2c1Sc1ccccc1CC2N1CCNCC1` (stereo not drawn) yielded an IC50 of 5.98 µM.
